These results are taken from ChEMBL document CHEMBL1138285, “Structure-activity relationships of adenosines with heterocyclic N6-substituents” (Bioorg Med Chem Lett, 2007).

A word on the Ki: it is the dissociation constant of the complex between target and ligand, obtained from inhibition or displacement. A low value points to a stronger hold on the target.

Test [1] addresses Adenosine receptor A2a (Rattus norvegicus) (UniProt P30543). The test can be described thus: Displacement of [3H]ZM-241385 from adenosine A2A receptor expressed in PC12 cell membrane. In general terms: In a radioligand displacement assay an active substance lowers the binding of a labelled ligand.
Test [2] has as its system Adenosine receptor A1 (Mesocricetus auratus). The test can be described thus: Intrinsic activity at adenosine A1 receptor expressed in DDT1 MF2 cells assessed as maximal inhibition of (-)-isoproterenol-stimulated cAMP accumulation. Background: Changes in cAMP serve as a functional read-out for many G protein-coupled receptors.
For test [3], the species on record is Homo sapiens. Put plainly: Selectivity for adenosine A1 receptor over adenosine A2A receptor.

Chain of Adenosine receptor A2a (Rattus norvegicus) (P30543 whole entry, looked up): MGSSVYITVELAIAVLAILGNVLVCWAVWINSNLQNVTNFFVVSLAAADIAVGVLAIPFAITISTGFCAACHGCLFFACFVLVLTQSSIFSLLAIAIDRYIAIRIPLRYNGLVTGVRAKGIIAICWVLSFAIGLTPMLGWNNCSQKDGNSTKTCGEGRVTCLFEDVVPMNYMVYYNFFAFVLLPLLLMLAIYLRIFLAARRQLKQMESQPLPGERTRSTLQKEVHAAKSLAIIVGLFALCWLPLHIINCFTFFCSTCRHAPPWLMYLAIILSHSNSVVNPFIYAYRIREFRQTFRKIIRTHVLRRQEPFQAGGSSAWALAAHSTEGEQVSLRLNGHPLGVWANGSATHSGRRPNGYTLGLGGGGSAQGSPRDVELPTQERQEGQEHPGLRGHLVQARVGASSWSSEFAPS

In turn, `CC(=O)N1CC[C@@H](Nc2ncnc3c2ncn3[C@@H]2O[C@H](CO)[C@@H](O)[C@H]2O)C1` came in with an inhibitory constant (Ki) in test [1] of over 100 µM.

For `O=C(OCc1ccccc1Br)N1[C@H]2CC[C@H]1[C@H](Nc1ncnc3c1ncn3[C@@H]1O[C@H](CO)[C@@H](O)[C@H]1O)C2`, in test [1], the Ki is over 100 µM. Moreover, the Intrinsic activity in test [2] is 0.97. In test [1], `O=C(OCc1ccccc1)N1CC[C@@H](Nc2ncnc3c2ncn3[C@@H]2O[C@H](CO)[C@@H](O)[C@H]2O)C1` came in with a Ki of over 100 µM. In the case of `CC(C)(C)OC(=O)N1CC[C@@H](Nc2ncnc3c2ncn3[C@@H]2O[C@H](CO)[C@@H](O)[C@H]2O)C1`, the Ki in test [1] was over 100 µM. Besides, the Intrinsic activity in test [2] was 0.99. Further, the Ratio Ki in test [3] is over 4700. `OC[C@H]1O[C@@H](n2cnc3c(N[C@@H]4CCSC4)ncnc32)[C@H](O)[C@@H]1O`: affinity in test [1] was put at a Ki of 9.7 µM. On the same count and under the same terms, with `OC[C@H]1O[C@@H](n2cnc3c(N[C@@H]4CCOC4)ncnc32)[C@H](O)[C@@H]1O` [TECADENOSON] the figure was over 100 µM; with `OC[C@H]1O[C@@H](n2cnc3c(N[C@@H]4CC[Se]C4)ncnc32)[C@H](O)[C@@H]1O`, 5.5 µM; with `O=C(OCc1ccccc1Cl)N1[C@H]2CC[C@H]1[C@H](Nc1ncnc3c1ncn3[C@@H]1O[C@H](CO)[C@@H](O)[C@H]1O)C2`, over 100 µM. Same read-out and setting: with `OC[C@H]1O[C@@H](n2cnc3c(NC4CC5CCC4N5)ncnc32)[C@H](O)[C@@H]1O` (stereo not given in full) the figure was 7.8 µM; with `O=C(OCc1ccccc1)N1[C@H]2CC[C@H]1[C@H](Nc1ncnc3c1ncn3[C@@H]1O[C@H](CO)[C@@H](O)[C@H]1O)C2`, over 100 µM.

`CC(C)(C)OC(=O)N1[C@H]2CC[C@H]1[C@H](Nc1ncnc3c1ncn3[C@@H]1O[C@H](CO)[C@@H](O)[C@H]1O)C2`: in test [1], the Ki stood at 34.7 µM. Also, the Intrinsic activity in test [2] was 1.01.
